For assay [1], the system named is HCV 1a-H77 transient subgenomic replicon in Huh-7 derived cell line. The assay is described as follows: microbe, parasite or virus in culture. The format is cell-based, HCV genotype 1a. The following applies: Hepatitis C virus, Huh-7; transient replicon, 5% FBS; read-out: Transient Replicon 1a H77 5% FBS EC50. The method in brief:
(§1)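 Subgenomic replicon RNA (no Neo gene) electroporated into Huh-7-derived cells, plated at 5×10^3 cells/well; a 4 h plate gauged transfection efficiency. Cells exposed to 3-fold compound dilutions (0.5% DMSO) for 4 days at 37° C, then lysed for luciferase readout; EC50 calculated.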

Assay [2] has as its system HCV 1a-H77-C316Y transient subgenomic replicon in Huh-7 derived cell line. The assay is described as follows: microbe, parasite or virus in culture. The following applies: for pEC50: Hepatitis C virus, Huh-7, read-out: Transient Replicon 1a H77-C316Y 5% FBS EC50; for Transient Replicon Fold Resistance C316Y/1a: ratio of transient replicon EC50s, C316Y / 1a H77. The format is cell-based, HCV genotype 1a. The method in brief: as §1
Background: Replicon systems follow genome replication, usually without infectious particles.

Assay [3] deals with T1, HCV NS5B polymerase 1a-H77 (Hepatitis C virus genotype 1a, UniProt P27958).
T1 construct: six-histidine tag; made in house; host or cells: E. coli
T1 sequence (P27958 2421-2990): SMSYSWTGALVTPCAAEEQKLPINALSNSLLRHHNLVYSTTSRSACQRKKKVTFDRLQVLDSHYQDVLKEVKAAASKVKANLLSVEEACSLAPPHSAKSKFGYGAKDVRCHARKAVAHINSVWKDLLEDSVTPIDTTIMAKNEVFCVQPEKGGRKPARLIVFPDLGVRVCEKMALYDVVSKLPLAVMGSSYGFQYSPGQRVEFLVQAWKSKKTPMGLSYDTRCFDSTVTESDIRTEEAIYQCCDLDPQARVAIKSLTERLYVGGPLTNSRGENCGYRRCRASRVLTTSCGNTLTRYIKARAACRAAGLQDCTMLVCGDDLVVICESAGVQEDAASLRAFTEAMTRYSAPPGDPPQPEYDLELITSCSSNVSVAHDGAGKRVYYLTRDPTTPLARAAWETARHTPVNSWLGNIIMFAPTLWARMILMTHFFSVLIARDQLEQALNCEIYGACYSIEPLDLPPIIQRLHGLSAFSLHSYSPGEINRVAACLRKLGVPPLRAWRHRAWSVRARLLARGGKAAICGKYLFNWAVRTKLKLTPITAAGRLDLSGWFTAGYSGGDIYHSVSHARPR
The assay is described as follows: biochemical. Further details: species or system HCV genotype 1a. The following applies: enzyme, strain 1a H77; read-out: HCV Polymerase Strain 1a H77 IC50. The gist of the method: (§2)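 E. coli-expressed NS5B (residues 1-570, His-tagged) transcribed a 2.1 kb HCV 1b negative-strand 3′-end RNA template (5 nM) with 20 μM CTP, 20 μM ATP and 0.284 μM [3H]UTP for 3 h at 30° C. Spermine-precipitated RNA was filter-captured and counted by scintillation; IC50 from nonlinear regression.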

The target in assay [4] is T2, HCV NS5B polymerase 1a-H77-C316Y (Hepatitis C virus genotype 1a, UniProt P27958, C2736Y).
T2 construct: six-histidine tag; made in house; host or cells: E. coli
T2 sequence (P27958 2421-2990 C2736Y): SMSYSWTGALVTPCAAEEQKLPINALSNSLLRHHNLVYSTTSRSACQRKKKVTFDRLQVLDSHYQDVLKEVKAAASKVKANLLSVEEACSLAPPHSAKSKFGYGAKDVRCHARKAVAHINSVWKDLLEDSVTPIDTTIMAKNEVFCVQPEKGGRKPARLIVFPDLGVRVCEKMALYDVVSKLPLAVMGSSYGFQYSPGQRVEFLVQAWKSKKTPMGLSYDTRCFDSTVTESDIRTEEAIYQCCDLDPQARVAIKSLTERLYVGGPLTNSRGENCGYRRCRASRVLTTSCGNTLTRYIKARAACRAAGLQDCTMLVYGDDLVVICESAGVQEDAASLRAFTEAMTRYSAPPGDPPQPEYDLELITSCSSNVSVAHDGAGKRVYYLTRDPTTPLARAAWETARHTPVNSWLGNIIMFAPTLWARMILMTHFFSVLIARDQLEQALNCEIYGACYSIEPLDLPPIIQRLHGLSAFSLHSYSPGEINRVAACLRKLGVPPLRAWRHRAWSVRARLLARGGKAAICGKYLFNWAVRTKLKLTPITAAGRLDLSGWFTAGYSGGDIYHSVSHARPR
The assay is described as follows: biochemical. More on the design: species or system HCV genotype 1a. The method in brief:
as §2

For assay [5], the system named is HCV NS5B polymerase 1a-H77-C316Y. The experiment in a line: biochemical. More on the design: species or system HCV genotype 1a. The following applies: ratio of enzyme IC50s, 1a H77-C316Y / 1a H77. The gist of the method: as §2
The test system of assay [6] is chimeric replicon with 2a-J6CF-derived NS5B. The assay is described as follows: microbe, parasite or virus in culture. The format is cell-based, HCV genotype 2a. Conditions: Hepatitis C virus, read-out: 2a chimera 5% FBS EC50.
The target of assay [7] is T3, HCV NS5B polymerase 1b BK strain (Hepatitis C virus genotype 1b, UniProt P26663).
T3 construct: six-histidine tag; made in house; host or cells: E. coli
T3 sequence (P26663 2420-2989): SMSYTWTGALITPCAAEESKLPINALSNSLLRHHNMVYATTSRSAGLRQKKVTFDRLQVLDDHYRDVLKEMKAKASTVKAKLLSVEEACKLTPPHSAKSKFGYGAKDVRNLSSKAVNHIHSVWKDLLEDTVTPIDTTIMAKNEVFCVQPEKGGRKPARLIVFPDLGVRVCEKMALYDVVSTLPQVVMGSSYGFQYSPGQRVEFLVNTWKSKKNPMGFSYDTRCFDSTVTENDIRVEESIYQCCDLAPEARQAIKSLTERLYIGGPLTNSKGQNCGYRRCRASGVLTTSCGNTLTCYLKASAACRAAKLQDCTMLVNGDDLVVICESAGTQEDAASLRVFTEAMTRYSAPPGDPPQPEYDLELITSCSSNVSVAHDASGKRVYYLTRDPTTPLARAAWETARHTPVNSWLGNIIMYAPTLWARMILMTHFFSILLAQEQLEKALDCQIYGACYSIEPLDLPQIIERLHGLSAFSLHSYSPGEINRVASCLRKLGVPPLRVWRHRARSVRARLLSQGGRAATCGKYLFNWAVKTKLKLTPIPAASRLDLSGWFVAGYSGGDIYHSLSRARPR
The assay is described as follows: HCV NS5B polymerase enzymatic inhibition assay, strain 1b BK. The format is biochemical. The following applies: enzyme, strain 1b BK; read-out: HCV Polymerase Strain 1b BK IC50. The gist of the method:
as §2

Assay [8] concerns chimeric replicon with genotype 3a NS5B. The experiment in a line: microbe, parasite or virus in culture. The format is cell-based, HCV genotype 3a. Conditions: Hepatitis C virus, read-out: 3a chimera 5% FBS EC50.
The test system of assay [9] is chimeric replicon with genotype 2b NS5B. The experiment in a line: microbe, parasite or virus in culture. The format is cell-based, HCV genotype 2b. Conditions: Hepatitis C virus, read-out: 2b chimera 5% FBS EC50.
The test system of assay [10] is HCV 1a-H77 C316Y mutant subgenomic replicon. The assay is described as follows: Stable replicon cell culture assay (luciferase), 1a-H77-C316Y mutant. Conditions: for pEC50: Hepatitis C virus, read-out: Stable Replicon 1a H77-C316Y 5% FBS EC50; for Stable Replicon Fold Resistance C316Y/1a: ratio of stable replicon EC50s, C316Y / 1a H77. The format is cell-based, HCV genotype 1a.

Each structure is given as a SMILES string. pEC50, pIC50: −log10 of the molar value.

A word on the pEC50: it is the negative decadic logarithm of the EC50, by convention in mol/L. Usually pIC50 stands for the IC50 on a negative log10 scale, so that one unit is a factor of ten.

As to `CS(=O)(=O)N(CCO)c1cc2oc(-c3ccc(F)cc3)c(-c3ncc[nH]3)c2cc1C1CC1` [Example 109, N-[5-cyclopropyl-2-(4-fluorophenyl)-3-(1H-imidazol-2-yl)-1-benzofuran-6-yl]-N-(2-hydroxyethyl)methanesulfonamide], the pEC50 in assay [1] is 7.42; in assay [2], 5.89; in [6], 6.94; in [8] it was 8.17; in assay [9], 6.92; in assay [10], 6.33. Besides, the “Transient Replicon Fold Resistance C316Y/1a” value in assay [2] was 34 fold. In addition, the negative-log IC50 (pIC50) is 8.23 in assay [3], 6.27 in assay [4] and 7.21 in assay [7]. Further, the “C316Y/1a Fold Resistance” value in assay [5] worked out at 90 fold. The “Stable Replicon Fold Resistance C316Y/1a” value in assay [10] is listed as 23.6 fold.
As for `CS(=O)(=O)N(CCO)c1cc2oc(-c3ccc(F)cc3)c(C3=NOCCN3)c2cc1C1CC1` [Example 136, N-[5-cyclopropyl-3-(5,6-dihydro-4H-1,2,4-oxadiazin-3-yl)-2-(4-fluorophenyl)-1-benzofuran-6-yl]-N-(2-hydroxyethyl)methanesulfonamide], the negative logarithm of the EC50 (pEC50) in assay [1] was 7.49; in [2] it was 6.17; in [6], 6.69; in assay [8], 7.38; in assay [9] it was 6.37; in [10] it was 6.25. The “Transient Replicon Fold Resistance C316Y/1a” value in assay [2] came out at 21 fold. The pIC50 in assay [3] is 8.19; in assay [4], 6.59; in assay [7], 6.70. For the same molecule, in [5], the “C316Y/1a Fold Resistance” value turned out to be 40 fold. Also, the “Stable Replicon Fold Resistance C316Y/1a” value in [10] stood at 42.0 fold.
`CCCC/C=C/c1ccc(-c2oc3cc(N(CCCCS(C)(=O)=O)S(C)(=O)=O)c(C4CC4)cc3c2-c2ncc[nH]2)cc1` [Example 168, N-[5-cyclopropyl-2-{4-[(1E)-hex-1-en-1-yl]phenyl}-3-(1H-imidazol-2-yl)-1-benzofuran-6-yl]-N-[4-(methylsulfonyl)butyl]methanesulfonamide]: the negative logarithm of the EC50 (pEC50) in assay [1] is 9.22; in assay [2] it was 7.84; in assay [6], 8.22; in [8], 7.90; in assay [9] it was 7.88; in assay [10] it was 7.75. Further, in [2], the “Transient Replicon Fold Resistance C316Y/1a” value is reported as 24 fold. The figures for the pIC50 in assay [3], in [4] and in assay [7] were 8.31, 8.07 and 7.41, respectively. Also, the “C316Y/1a Fold Resistance” value in [5] turned out to be 2 fold. Also, the “Stable Replicon Fold Resistance C316Y/1a” value in [10] is reported as 9.72 fold.
`CS(=O)(=O)CCCCN(c1cc2oc(-c3ccc(Nc4ccccc4)cc3)c(-c3ncc[nH]3)c2cc1C1CC1)S(C)(=O)=O` [Example 169, N-[2-(4-anilinophenyl)-5-cyclopropyl-3-(1H-imidazol-2-yl)-1-benzofuran-6-yl]-N-[4-(methylsulfonyl)butyl]methanesulfonamide]: the negative-log EC50 (pEC50) in [1] was 9.22; in [2], 8.39; in assay [6], 7.77; in [8], 7.82; in assay [9], 7.91; in assay [10] it was 7.94. For the same molecule, in assay [2], the “Transient Replicon Fold Resistance C316Y/1a” value was determined as 6 fold. Also, the negative logarithm of the IC50 (pIC50) in assay [3] is 8.22; in [4], 7.70; in assay [7] it was 7.41. Further, in [5], the “C316Y/1a Fold Resistance” value is reported as 3 fold. In [10], the “Stable Replicon Fold Resistance C316Y/1a” value was 5.33 fold.

These data come from US20160355530A1, “HEPATITIS C INHIBITORS AND USES THEREOF” (AbbVie Inc., priority 2010, published 2016).
